Laboratory results published in patent publication EP4653437A2 (Innovo Therapeutics Inc., priority 2023, dated 2024).

Columns and labels:
human 15-PGDH = target: T1, human 15-PGDH (Homo sapiens, UniProt P15428); experiment: Evaluation of 15-PGDH inhibitory activity (fluorescence enzyme assay, NAD+/PGE2); assay type: biochemical; conditions: human 15-PGDH enzyme, fluorescence Vmax
T1 construct: purchased R&D System 5660-DH
T1 sequence (P15428 1-266): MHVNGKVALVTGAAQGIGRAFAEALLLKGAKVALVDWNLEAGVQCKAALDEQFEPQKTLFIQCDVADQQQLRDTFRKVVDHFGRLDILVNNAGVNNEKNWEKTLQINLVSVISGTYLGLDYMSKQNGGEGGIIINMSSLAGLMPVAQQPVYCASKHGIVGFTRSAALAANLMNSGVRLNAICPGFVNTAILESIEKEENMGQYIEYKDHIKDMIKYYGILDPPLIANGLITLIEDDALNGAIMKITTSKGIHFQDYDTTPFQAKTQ
Procedure: 15-PGDH inhibition activity of Example compounds was measured as follows. 6.7 ng of human 15-PGDH (R&D System# 5660-DH) enzyme (10 µL) was added to a black 96 well plate, 60 µL of buffer (50 mM Tris-HCl, pH 7.5, 0.01% Tween 20) was added, and 10 µL of 200 µM β-Nicotinamide adenine dinucleotide sodium salt (Sigma, Cat# N0632-5G) was added. 10 µL of (10x) compound solution in DMSO was added and reacted for 10 minutes at room temperature.

A549 cells = experiment: Measurement of PGE2-increasing activity in A549 cells (IL-1β stimulated, PGE2 quantified in supernatant); assay type: cell-based; conditions: Homo sapiens, 24 h; concentration of 1 µM of each compound; IL-1β treated A549 cells; read-out: Increased PGE2 production in A549 cells
In short: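 PGE2 secreted into the supernatant was measured by immunoassay 24 h after treatment. Before treatment, A549 cells were cultured 24 h in 10% FBS F12K, washed, and placed in serum-free medium containing compound (DMSO 0.1% final) plus or minus IL-1β, incubated at 37 °C, 5% CO2.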

Compound	IC50 (human 15-PGDH)	fold induction at 1 µM (A549 cells)
O=C(c1cnn2c(-c3ccc(-n4cc([N+](=O)[O-])cn4)nc3)cccc12)N1CCCCC1 [Example 355, (7-(6-(4-nitro-1H-pyrazol-1-yl)pyridin-3-yl)pyrazolo[1,5-a]pyridin-3-yl)(piperidin-1-yl)methanone]	≤ 100 nM	> 1.5
CS(=O)(=O)NC(=O)c1cncc(-c2cccc3c(C(=O)N4CCCCC4)cnn23)c1 [Example 201, N-methylsulfonyl-5-[3-(piperidine-1-carbonyl)pyrazolo[1,5-a]pyridin-7-yl]pyridine-3-carboxamide]	≤ 100 nM	> 1.5
O=C(c1cncc(-c2cccc3c(C(=O)N4CCCCC4)cnn23)c1)N1CCNCC1 [Example 48, piperazin-1-yl(5-(3-(piperidine-1-carbonyl)pyrazolo[1,5-a]pyridin-7-yl)pyridin-3-yl)methanone]	≤ 100 nM	< 1.5
CN1CCc2ccc(-c3cccc4c(C(=O)N5CCCCC5)cnn34)cc2C1=O [Example 132, 2-methyl-7-(3-(piperidine-1-carbonyl)pyrazolo[1,5-a]pyridin-7-yl)-3,4-dihydroisoquinolin-1(2H)-one]	≤ 100 nM	> 1.5
O=C(Nc1cncc(-c2cccc3c(C(=O)N4CCCCC4)cnn23)c1)c1cncnc1 [Example 334, N-(5-(3-(piperidine-1-carbonyl)pyrazolo[1,5-a]pyridin-7-yl)pyridin-3-yl)pyrimidine-5-carboxamide]	≤ 100 nM	> 1.5
Cc1ncc(-c2cc(-c3cccc4c(C(=O)N5CCCCC5)cnn34)cc(N3CCOCC3)n2)cn1 [Example 377, (7-(2-(2-methylpyrimidin-5-yl)-6-morpholinopyridin-4-yl)pyrazolo[1,5-a]pyridin-3-yl)(piperidin-1-yl)methanone]	≤ 100 nM	> 1.5
Cn1oc2ccc(-c3cccc4c(C(=O)N5CCCCC5)cnn34)cc2c1=O [Example 268, 2-methyl-5-(3-(piperidine-1-carbonyl)pyrazolo[1,5-a]pyridin-7-yl)benzo[d]isoxazol-3(2H)-one]	≤ 100 nM	> 1.5
O=C(c1cnn2c(-c3ccc(N4CCC5(CCC5)C4)nc3)cccc12)N1CCCCC1 [Example 223, (7-(6-(6-azaspiro[3.4]octan-6-yl)pyridin-3-yl)pyrazolo[1,5-a]pyridin-3-yl)(piperidin-1-yl)methanone]	≤ 100 nM	> 1.5
CN1CCC(C(=O)Nc2ccc(-c3cccc4c(C(=O)N5CCCCC5)cnn34)cc2)CC1 [Example 99, 1-methyl-N-(4-(3-(piperidine-1-carbonyl)pyrazolo[1,5-a]pyridin-7-yl)phenyl)piperidine-4-carboxamide]	≤ 100 nM	< 1.5
COCCNC(=O)c1ccc(-c2cccc3c(C(=O)N4CCCCC4)cnn23)cc1 [Example 62, N-(2-methoxyethyl)-4-(3-(piperidine-1-carbonyl)pyrazolo[1,5-a]pyridin-7-yl)benzamide]	≤ 100 nM	> 1.5
O=C(c1cnn2c(-c3ccc(-c4noc(=O)[nH]4)cc3)cccc12)N1CCCCC1 [Example 116, 3-(4-(3-(piperidine-1-carbonyl)pyrazolo[1,5-a]pyridin-7-yl)phenyl)-1,2,4-oxadiazol-5(4H)-one]	≤ 100 nM	> 1.5
O=C(c1cnn2c(-c3ccc([N+](=O)[O-])cc3)cccc12)N1CCC(F)CC1 [Example 157, (4-fluoropiperidin-1-yl)(7-(4-nitrophenyl)pyrazolo[1,5-a]pyridin-3-yl)methanone]	≤ 100 nM	> 1.5
O=C1NCc2ccc(-c3cccc4c(C(=O)N5CCC6(CCC6)C5)cnn34)cc21 [Example 391, 6-(3-(6-azaspiro[3.4]octane-6-carbonyl)pyrazolo[1,5-a]pyridin-7-yl)isoindolin-1-one]	≤ 100 nM	> 1.5
O=C(NCc1cncs1)c1cncc(-c2cccc3c(C(=O)N4CCCCC4)cnn23)c1 [Example 57, 5-(3-(piperidine-1-carbonyl)pyrazolo[1,5-a]pyridin-7-yl)-N-(thiazol-5-ylmethyl)nicotinamide]	≤ 100 nM	> 1.5
O=C(c1ccc(-c2cccc3c(C(=O)N4CCCCC4)cnn23)cn1)N1CC(F)(F)C1 [Example 237, (3,3-difluoroazetidin-1-yl)-[5-[3-(piperidine-1-carbonyl)pyrazolo[1,5-a]pyridin-7-yl]-2-pyridyl]methanone]	≤ 100 nM	> 1.5
O=C1NCCc2ccc(-c3cccc4c(C(=O)N5CCC(F)CC5)cnn34)cc21 [Example 154, 7-(3-(4-fluoropiperidine-1-carbonyl)pyrazolo[1,5-a]pyridin-7-yl)-3,4-dihydroisoquinolin-1(2H)-one]	≤ 100 nM	> 1.5
N#Cc1ccc(Nc2cccc3c(C(=O)N4CCCCC4)cnn23)cc1 [Example 146, 4-((3-(piperidine-1-carbonyl)pyrazolo[1,5-a]pyridin-7-yl)amino)benzonitrile]	≤ 100 nM	> 1.5
N#CCNC(=O)c1ccc(-c2cccc3c(C(=O)N4CCCCC4)cnn23)cc1 [Example 70, N-(cyanomethyl)-4-(3-(piperidine-1-carbonyl)pyrazolo[1,5-a]pyridin-7-yl)benzamide]	≤ 100 nM	> 1.5
O=C(c1cnn2c(-c3ccc(N4CCOC4=O)nc3)cccc12)N1CCCC(F)(F)C1 [Example 384, 3-(5-(3-(3,3-difluoropiperidine-1-carbonyl)pyrazolo[1,5-a]pyridin-7-yl)pyridin-2-yl)oxazolidin-2-one]	≤ 100 nM	> 1.5

Now from value to compound, other results behind:

IC50 (human 15-PGDH)	Compound	fold induction at 1 µM (A549 cells)
≤ 100 nM	O=C(c1cnn2c(-c3cnc(-c4n[nH]c(=O)o4)c(F)c3)cccc12)N1CCCCC1 [Example 373, 5-[3-fluoro-5-[3-(piperidine-1-carbonyl)pyrazolo[1,5-a]pyridin-7-yl]-2-pyridyl]-3H-1,3,4-oxadiazol-2-one]	> 1.5
≤ 100 nM	CN1Cc2ccc(-c3cccc4c(C(=O)N5CCCCC5)cnn34)cc2C1=O [Example 141, 2-methyl-6-(3-(piperidine-1-carbonyl)pyrazolo[1,5-a]pyridin-7-yl)isoindolin-1-one]	> 1.5
≤ 100 nM	COc1noc2ccc(-c3cccc4c(C(=O)N5CCCCC5)cnn34)cc12 [Example 269, (7-(3-methoxybenzo[d]isoxazol-5-yl)pyrazolo[1,5-a]pyridin-3-yl)(piperidin-1-yl)methanone]	> 1.5
≤ 100 nM	CC1c2cc(-c3cccc4c(C(=O)N5CCCCC5)cnn34)cnc2C(=O)N1C (stereo not drawn) [Example 280, 5,6-dimethyl-3-(3-(piperidine-1-carbonyl)pyrazolo[1,5-a]pyridin-7-yl)-5,6-dihydro-7H-pyrrolo[3,4-b]pyridin-7-one]	> 1.5
≤ 100 nM	O=C(c1cnn2c(-c3ccc(-c4n[nH]c(=S)o4)nc3)cccc12)N1CCCCC1 [Example 365, 1-piperidyl-[7-[6-(2-thioxo-3H-1,3,4-oxadiazol-5-yl)-3-pyridyl]pyrazolo[1,5-a]pyridin-3-yl]methanone]	> 1.5
≤ 100 nM	Cc1cnc(-c2ccc(-c3cccc4c(C(=O)N5CCCCC5)cnn34)cc2)s1 [Example 351, [7-[4-(5-methylthiazol-2-yl)phenyl]pyrazolo[1,5-a]pyridin-3-yl]-(1-piperidyl)methanone]	> 1.5
≤ 100 nM	O=C(c1cnn2c(-c3cccc(F)n3)cccc12)N1CCCCC1 [Example 271, (7-(6-fluoropyridin-2-yl)pyrazolo[1,5-a]pyridin-3-yl)(piperidin-1-yl)methanone]	> 1.5
≤ 100 nM	Cc1nc(-c2c(F)cc(-c3cccc4c(C(=O)N5CCCCC5)cnn34)cc2F)no1 [Example 328, (7-(3,5-difluoro-4-(5-methyl-1,2,4-oxadiazol-3-yl)phenyl)pyrazolo[1,5-a]pyridin-3-yl)(piperidin-1-yl)methanone]	> 1.5
≤ 100 nM	O=C(c1ccc(-c2cccc3c(C(=O)N4CCCCC4)cnn23)cn1)N1CC(F)C1 [Example 213, (3-fluoroazetidin-1-yl)-[5-[3-(piperidine-1-carbonyl)pyrazolo[1,5-a]pyridin-7-yl]-2-pyridyl]methanone]	> 1.5
≤ 100 nM	O=C(c1ncc(-c2cccc3c(C(=O)N4CCCCC4)cnn23)cc1F)N1CCOCC1 [Example 249, [7-[5-fluoro-6-(morpholine-4-carbonyl)-3-pyridyl]pyrazolo[1,5-a]pyridin-3-yl]-(1-piperidyl)methanone]	< 1.5
≤ 100 nM	O=C(c1cnn2c(-c3cc(Br)cnc3F)cccc12)N1CCCCC1 [Example 265, (7-(5-bromo-2-fluoropyridin-3-yl)pyrazolo[1,5-a]pyridin-3-yl)(piperidin-1-yl)methanone]	> 1.5
